From the supplement of paper PMC6965134
± gives the standard deviation of the averaged measurements.

Experiment: TIMS collisional cross section (CCS, N2) of the lipid ion; higher = larger ion cross section
Settings: ionization mode: positive, one isomer drawn

| SMILES | TIMS collisional cross section (sample type: Liver) [Å²] | TIMS collisional cross section (sample type: HeLa) [Å²] | TIMS collisional cross section (sample type: plasma) [Å²] |
| --- | --- | --- | --- |
| CCCC/C=C\C/C=C\CCCCCCCC(=O)OC[C@H](COC(=O)CCC/C=C\C/C=C\C/C=C\C/C=C\CCCCC)OC(=O)CCCCCCC/C=C\C/C=C\CCCCC [TG 17:2_18:2_20:4] (ion (formula + adduct): [C58H96O6+NH4] 1+) | 322.2 | – | – |
| CCCCC/C=C\C/C=C\C/C=C\C/C=C\CCCC(=O)O[C@H](COC(=O)CCCCCCCCCCCCCCCCC)COP(=O)([O-])OCC[N+](C)(C)C [PC 18:0_20:4] (ion (formula + adduct): [C46H84NO8P+H] 1+) | 295.6 | 296.2 | – |
| CCCCC/C=C\C/C=C\C/C=C\C/C=C\CCCC(=O)O[C@H](COC(=O)CCCCCCCCCCCCCCC)COC(=O)CCCCCCCCCCCCCCCCCCCCC [TG 16:0_20:4_22:0] (ion (formula + adduct): [C61H110O6+NH4] 1+) | 338.2 | – | – |
| CCCCCCCC/C=C\CCCCCCCC(=O)OC[C@@H](O)COP(=O)(O)OCCN [LPE 18:1] (ion (formula + adduct): [C23H46NO7P+H] 1+) | 217 ± 2 | 216.4 | 216.93 ± 1.3 |
| CCCCC/C=C\C/C=C\CCCCCCCC(=O)O[C@H](COC(=O)CCCCCCC/C=C\CCCCCCCC)COP(=O)(O)OCCN [PE 18:1_18:2@] (ion (formula + adduct): [C41H76NO8P+H] 1+) | – | 277.9 | 275.8 |
| CCCCCCCCCCCCCCCCCC(=O)O[C@H](COC(=O)CCCCCCC)COP(=O)([O-])OCC[N+](C)(C)C [PC 8:0_18:0@] (ion (formula + adduct): [C34H68NO8P+H] 1+) | 265.4 | – | – |
| CCCCC/C=C\C/C=C\CCCCCCCC(=O)OC[C@@H](COC(=O)CCCCCCCCCCC)OC(=O)CCCCCCC/C=C\CCCCCC [TG 12:0_16:1_18:2] (ion (formula + adduct): [C49H88O6+NH4] 1+) | 301.1 | – | – |
| CCCCCCCC/C=C\CCCCCCCCCCCC(=O)N[C@@H](COP(=O)([O-])OCC[N+](C)(C)C)[C@H](O)/C=C/CCCCCCCCCCCCC [SM d18:1_22:1@] (ion (formula + adduct): [C45H89N2O6P+H] 1+) | 299.3 | – | 299 |
| CCCCCCCC/C=C\CCCCCCCCCCCCCC(=O)N[C@@H](COP(=O)([O-])OCC[N+](C)(C)C)[C@H](O)/C=C/CCCCCCCCCCCC [SM d17:1_24:1@] (ion (formula + adduct): [C46H91N2O6P+H] 1+) | – | 302.1 | – |

Further lines, results first:

| TIMS collisional cross section (sample type: Liver) [Å²] | TIMS collisional cross section (sample type: HeLa) [Å²] | TIMS collisional cross section (sample type: plasma) [Å²] | SMILES |
| --- | --- | --- | --- |
| 315.2 | – | – | CCCCCCC/C=C\CCCCCCCC(=O)OC[C@@H](COC(=O)CCCCCCCCCCCCCCC)OC(=O)CCCCCCCCCCCCCCC [TG 16:0_16:0_17:1] (ion (formula + adduct): [C52H98O6+NH4] 1+) |
| – | 320.7 | – | CCCCCC/C=C\CCCCCCCC(=O)OC[C@H](COC(=O)CCCCCCCCCCCCCCCCC)OC(=O)CCCCCCCCCCCCCCCC [TG 16:1_17:0_18:0] (ion (formula + adduct): [C54H102O6+NH4] 1+) |
| – | 305.9 | – | CCCCCC/C=C\CCCCCCCC(=O)OC[C@@H](COC(=O)CCCCCCCCCCCCCC)OC(=O)CCCCCCCCCCCCCC [TG 15:0_15:0_16:1] (ion (formula + adduct): [C49H92O6+NH4] 1+) |
| – | 330.3 | – | CCCCCCCC/C=C\CCCCCCCCCC(=O)OC[C@@H](COC(=O)CCCCCCCCCCCCCCC)OC(=O)CCCCCCCCCCCCCCCCC [TG 16:0_18:0_20:1] (ion (formula + adduct): [C57H108O6+NH4] 1+) |
| – | – | 329.3 | CCCCC/C=C\C/C=C\CCCCCCCCCC(=O)OC[C@@H](COC(=O)CCCCCCCCCCCCCCCC)OC(=O)CCCCCCC/C=C\CCCCCCCC [TG 17:0_18:1_20:2] (ion (formula + adduct): [C58H106O6+NH4] 1+) |
